From patent publication US4743614A, “Amino acid derivatives and processes for preparation thereof” (Fujisawa Pharmaceutical Co., Ltd., priority 1985, dated 1988)

Experiments:
[1] = system: colony forming abilities of bone marrow cells (CFU-c); experiment: Restorative effect on suppressed colony forming abilities of bone marrow cells in immunodeficient hosts (mitomycin C-treated mice); type: in vivo, BDF1 mice; conditions: mitomycin C 1 mg/kg for 2 days, day 9, n = 7-9, **P < 0.01
Method: Restorative effect on suppressed colony forming abilities of bone marrow cells in immunodeficient hosts: BDF1 mice (female, 8 weeks aged) were obtained from Shizuoka Agricultural Cooperative Association for Laboratory Animal, Hamamatsu, Japan. The mice were intraperitoneally injected with mitomycin C (1 mg/kg) every day for 2 days and FR-900490 was also administered to mice intraperitoneally every day for 5 days. At 9th day after first administration of mitomycin C, mice were sacrificed and the colony forming abilities of bone marrow cells (CFU-c) were measured. The schedule of the above test is shown below. [drawing 6] Femoral marrow was harvested from mice by flushing the bone cavity with α-Minimum Essential Medium (α-MEM) supplemented with penicillin G (100 units/ml), streptomycin (100 μg/ml) and 5% fetal bovine serum (FBS). The bone marrow cells were pelleted by centrifugation (500×g, 10 minutes) and resuspended in enriched α-MEM. Mononuclear cells were counted in a hemocytometer and the cells were diluted to 1 ×10^5 cells/ml. Then, 1 ml of bone marrow cells, 1 ml of FBS, 2 ml of 2.2% methyl cellulose in α-MEM and 1 ml of L-929 cell conditioned medium were added to a sterilized tube and mixed by use of automatic mixer. One ml of mixture was plated in 35 mm plastic petri dish and incubated for 7 days in a fully humidified atmosphere of 5% CO2 in air. Triplicate plates were prepared for each experiment. Colonies composed of 50 or more cells were scored on an inverted microscope.

B-16 melanoma = experiment: Inhibitory activity for tumor metastasis; type: in vivo, BDF1 mice; conditions: 14th day after B-16 melanoma injection, n = 10, **P < 0.01
Method: Inhibitory activity for tumor metastasis
B-16 Melanoma cells were grown in a Roswel park memorial Institute (RPMI)-1640 medium supplemented with penicillin G (100 units/ml), streptomycin (100 μg/ml) and 10% FBS to subsconfiluency, and the monolayers were rinsed with an aqueous solution of trypsin. Hanks' balanced salt (HBS) solution (Ca-Mg-free) containing the antibiotics described above was added to the monolayers and the monolayer was dislodged by gentle pipetting, and the cells were washed with HBS solution containing the antibiotics described above by centrifugation. The cells were resuspended in HBS solution containing the antibiotics described above and kept at cold temperature. BDF1 mice (female, 8 weeks aged) were injected intravenously with 2×10^5 cells of B-16 melanoma in 0.2 ml of HBS solution containing the antibiotics described above. FR-900490 was intraperitoneally administered once a day at one day and two days before and at one day and four days after the injection of B-16 melanoma. At 14th day after injection of B-16 melanoma, the mice were killed, and the lungs were removed, rinsed in distilled water containing heparin and the number of tumor foci was determined by counting the surface colonies under a dissecting microscope.
The schedule of the above test is shown. [drawing 7]

[2] = system: direct plaque forming cells (PFC-SRBC); experiment: Restorative effect on suppressed antibody forming abilities in immunodeficient hosts; type: in vivo, BDF1 mice
Method: Restorative Effect on Suppressed Antibody Forming Abilities in Immunodeficient Hosts
BDF1 mice (female, 8 weeks aged) were injected intraperitoneally with Mitomycin C (1 mg/kg) from four days before immunization with 5×10^8 Sheep Red Blood Cells (SRBC), every day for three days. Test samples also were administered to mice intraperitoneally from four days before immunization, every day for five days. At day 9, mice were sacrificed and the number of direct plaque forming cells per spleen (PFC-SRBC/spleen) was measured by using Cunningham modification method.
The schedule of the above test is shown. [drawing 8]

Solubility = type: physicochemical

C[C@@H](N[C@@H](Cc1c[nH]cn1)C(=O)O)[C@H](NC(=O)[C@@H](N)CC(N)=O)C(=O)O [FR-900490, (2S,3R)-2-[[(2S)-2-amino-3-carbamoylpropionyl]amino]-3-[[(1S)-1-carboxy-2-(4-imidazolyl)ethyl]amino]butyric acid]
CFU-c (mean ± SE) ([1]; 1 mg/kg i.p. every day for 5 days): 59.3 ± 2.86 | CFU-c (mean ± SE) ([1]; 10 mg/kg i.p. every day for 5 days): 70.4 ± 6.9 | CFU-c (mean ± SE) ([1]; 100 mg/kg i.p. every day for 5 days): 57.2 ± 2.51 | No. of colonies on the lung mean ± SE (B-16 melanoma; 1 mg/kg i.p.): 39.7 ± 6.4 | No. of colonies on the lung mean ± SE (B-16 melanoma; 10 mg/kg i.p.): 23.4 ± 3.3 | No. of colonies on the lung mean ± SE (B-16 melanoma; 100 mg/kg i.p.): 77.9 ± 27.4 | PFC-SRBC/spleen (average number of 5 mice/group) ([2]; 3 mg/kg i.p., mitomycin C-treated): 14.96 × 10^4 PFC-SRBC/spleen | PFC-SRBC/spleen (average number of 5 mice/group) ([2]; 10 mg/kg i.p., mitomycin C-treated): 17.49 × 10^4 PFC-SRBC/spleen | PFC-SRBC/spleen (average number of 5 mice/group) ([2]; 30 mg/kg i.p., mitomycin C-treated): 16.30 × 10^4 PFC-SRBC/spleen | PFC-SRBC/spleen (average number of 5 mice/group) ([2]; 100 mg/kg i.p., animals not administered mitomycin C): 16.83 × 10^4 PFC-SRBC/spleen | PFC-SRBC/spleen (average number of 5 mice/group) ([2]; 100 mg/kg i.p., mitomycin C-treated): 21.12 × 10^4 PFC-SRBC/spleen | Solubility (Solubility; Ethyl acetate): Insoluble | Solubility (Solubility; Methanol): Sparingly soluble | Solubility (Solubility; Water): Soluble | Solubility (Solubility; acetone): Insoluble | Solubility (Solubility; chloroform): Insoluble | Solubility (Solubility; ethanol): Sparingly soluble
